Experimental data from patent publication US8710184B2, “Motilin-like peptide compound having transmucosal absorbability imparted thereto” (Daiichi Sankyo Company, Limited, priority 2009, dated 2014).
Starred links: 1 amine or outer side, 2 acyl side, 3 side chain; linkers in the order of their positions; H or OH if unused. Non-standard residues stand in square brackets, D forms with d. Residues, ends and D or L forms follow the SMILES beside them. No end group written: not given here. X1 = CC(C)[C@@H](C(=O)[*:2])N(C[C@@H](N)Cc1ccccc1)[*:1]; β3hPhg = O=C(C[C@@H](N[*:1])c1ccccc1)[*:2]; Sar = CNCC(=O)O

Assays:
[1] = Pharmacokinetic experiment on pulmonarily administered native motilin and motilin derivative compounds in rats (RIA); type: in vivo, rat; settings: pulmonary administration; for Cmax / AUC / BA: 25 μg/rat; for AUC: trapezoidal method; for BA: relative to AUC of intravenous native motilin
Experimental: As test animals, 7- to 10-wk old male SD rats (purchased from CHARLES RIVER LABORATORIES JAPAN, INC.) that consisted of 3 rats per a group were subjected to the following experiment. Native motilin or motilin derivative compounds were dissolved in an aqueous solution of 0.1 N acetic acid to prepare a solution at a concentration of 1 mg/mL and 25 μL of the solution was administered into the polyethylene tube through the trachea by means of an intratracheal liquid spraying device (MicroSprayer; product of Penn Century). […] In the measurement, the respective derivatives were used as standard substances to construct calibration curves for determining the plasma levels.
Using these values, bioavailability (BA (%)) was calculated by the following equation: BA(%)=[(AUC/Dose)/(AUC(motilin—iv)/Dose(motilin—iv))]×100 • AUC: AUC (ng·min/mL) after pulmonary administration • Dose: dose (μg/kg) in pulmonary administration • AUC (motilin_iv): AUC (ng·min/mL) after intravenous administration of native motilin • Dose (motilin_iv): dose (μg/kg) in intravenous administration of native motilin.

[2] = system: conscious dog's gastrointestinal tract; experiment: Fasting IMC inducing activity in conscious dogs (force transducers); type: in vivo; settings: fasting period, intravenous, 0.1 μg/kg
Description: More specifically, dogs under anesthesia were subjected to a surgical operation in which force transducers were sutured to the serous membranes of the gastric antrum, duodenum, jejunum and ileum along the ring-shaped muscle and, thereafter, the strain from each transducer was sent to a recorder via an amplifier.

[3] = male, SD, plasma, inhaled or intranasal, 25 ug/animal

Cmax [1, 3]	AUC [1, 3]	BA [1]	Molecule	further results
9.3 ± 3.09 ng/mL	1.98 ng·h/mL	4.1 ± 1.6%	CC[C@H](C)[C@H](NC(=O)[C@@H]1CCCN1C(=O)[C@@H](NC[C@@H](N)Cc1ccccc1)C(C)C)C(=O)N[C@@H](Cc1ccccc1)C(=O)N[C@H](C(=O)N[C@@H](Cc1ccc(O)cc1)C(=O)NCC(=O)N[C@@H](CCC(=O)O)C(=O)N[C@@H](CC(C)C)C(=O)N[C@@H](CCC(N)=O)C(=O)N[C@@H](CCCNC(=N)N)C(=O)N[C@@H](CCSC)C(=O)N[C@@H](CCC(N)=O)C(=O)N[C@@H](CCC(=O)O)C(=O)N[C@@H](CCCCN)C(=O)N[C@@H](CCC(=O)O)C(=O)N[C@@H](CCCNC(=N)N)C(=O)N[C@@H](CC(N)=O)C(=O)N[C@@H](CCCCN)C(=O)NCC(=O)N[C@@H](CCC(N)=O)C(=O)O)[C@@H](C)O [Comparative compound 2, reference compound] (H-[X1]PIFTYGELQRMQEKERNKGQ-OH; N-terminus and C-terminus assumed)	BA ([1]; listed as comparative compound 2): 4.1%
9.09 ± 0.53 ng/mL	1.99 ng·h/mL	5.3 ± 0.6%	CC[C@H](C)[C@H](NC(=O)[C@@H]1CCCN1C(=O)[C@@H](NC(=O)[C@@H](N)Cc1ccccc1)C(C)C)C(=O)N[C@@H](Cc1ccccc1)C(=O)N[C@H](C(=O)N[C@@H](Cc1ccc(O)cc1)C(=O)NCC(=O)N[C@@H](CCC(=O)O)C(=O)N[C@@H](CC(C)C)C(=O)N[C@@H](CCC(N)=O)C(=O)N[C@@H](CCCNC(=N)N)C(=O)N[C@@H](CCSC)C(=O)N[C@@H](CCC(N)=O)C(=O)N[C@@H](CCC(=O)O)C(=O)N[C@@H](CCCCN)C(=O)N[C@@H](CCC(=O)O)C(=O)N[C@@H](CCCNC(=N)N)C(=O)N[C@@H](CC(N)=O)C(=O)N[C@@H](CCCCN)C(=O)N1CCC[C@H]1C(=O)N[C@@H](CCC(N)=O)C(=O)O)[C@@H](C)O [Compound 1]	BA ([1]; listed as compound 1): 5.3%
34.2 ± 20 ng/mL	6.34 ng·h/mL	11.5 ± 6.1%	CC[C@H](C)[C@H](NC(=O)[C@@H]1CCCN1C(=O)[C@@H](NC[C@@H](N)Cc1ccccc1)C(C)C)C(=O)N[C@@H](Cc1ccccc1)C(=O)N[C@H](C(=O)N[C@@H](Cc1ccc(O)cc1)C(=O)NCC(=O)N[C@@H](CCC(=O)O)C(=O)N[C@@H](CC(C)C)C(=O)N[C@@H](CCC(N)=O)C(=O)N[C@@H](CCCNC(=N)N)C(=O)N[C@@H](CCSC)C(=O)N[C@@H](CCC(N)=O)C(=O)N[C@@H](CCC(=O)O)C(=O)N[C@@H](CCCCN)C(=O)N[C@@H](CCC(=O)O)C(=O)N[C@@H](CCCNC(=N)N)C(=O)N[C@@H](CC(N)=O)C(=O)N[C@@H](CCCCN)C(=O)N1CCC[C@H]1C(=O)N[C@@H](CCC(N)=O)C(=O)O)[C@@H](C)O [Compound 6] (H-[X1]PIFTYGELQRMQEKERNKPQ-OH; N-terminus and C-terminus assumed)	BA ([1]; listed as compound 6): 11.5%; profile of plasma concentration compared with native motilin ([1]; FIG. 3): high peak levels
–	–	5.9 ± 0.8%	CC[C@H](C)[C@H](NC(=O)CN(C)C(=O)[C@@H](NC(=O)C[C@@H](N)c1ccccc1)C(C)C)C(=O)N[C@@H](Cc1ccccc1)C(=O)N[C@H](C(=O)N[C@@H](Cc1ccc(O)cc1)C(=O)NCC(=O)N[C@@H](CCC(=O)O)C(=O)N[C@@H](CC(C)C)C(=O)N[C@@H](CCC(N)=O)C(=O)N[C@@H](CCCNC(=N)N)C(=O)N[C@@H](CCSC)C(=O)N[C@@H](CCC(N)=O)C(=O)N[C@@H](CCC(=O)O)C(=O)N[C@@H](CCCCN)C(=O)N[C@@H](CCC(=O)O)C(=O)N[C@@H](CCCNC(=N)N)C(=O)N1CCC[C@H]1C(=O)N[C@@H](CCCCN)C(=O)N1CCC[C@H]1C(=O)N[C@@H](CCC(N)=O)C(=O)O)[C@@H](C)O [Compound 10, Phg(C#CH2) Val Sar Ile Phe Thr Tyr Gly Glu Leu Gln Arg Met Gln Glu Lys Glu Arg Pro Lys Pro Gln] (β3hPhg-V[Sar]IFTYGELQRMQEKERPKPQ-OH; N-terminus and C-terminus assumed)	IMC Inducing activity [2]: Positive; Cmax ([1]; in vivo): 6.1 ± 1.5 ng/mL; AUC ([1]; in vivo): 3.16 ng·h/mL
30.1 ± 15.8 ng/mL	9.42 ng·h/mL	18.7 ± 10.7%	CC[C@H](C)[C@H](NC(=O)[C@@H]1CCCN1C(=O)[C@@H](NC[C@@H](N)Cc1ccccc1)C(C)C)C(=O)N[C@@H](Cc1ccccc1)C(=O)N[C@H](C(=O)N[C@@H](Cc1ccc(O)cc1)C(=O)NCC(=O)N[C@@H](CC(=O)O)C(=O)N[C@@H](CC(C)C)C(=O)N[C@@H](CCC(N)=O)C(=O)N[C@@H](CCCNC(=N)N)C(=O)N[C@@H](CC(C)C)C(=O)N[C@@H](CCC(N)=O)C(=O)N[C@@H](CCC(=O)O)C(=O)N[C@@H](CCCCN)C(=O)N[C@@H](CCC(=O)O)C(=O)N[C@@H](CCCNC(=N)N)C(=O)N1CCC[C@H]1C(=O)N[C@@H](CCCCN)C(=O)N1CCC[C@H]1C(=O)N[C@@H](CCC(N)=O)C(=O)O)[C@@H](C)O [Compound 12] (H-[X1]PIFTYGDLQRLQEKERPKPQ-OH; N-terminus and C-terminus assumed)	–
18.4 ± 10.4 ng/mL	3.09 ng·h/mL	5.6 ± 1.5%	CC[C@H](C)[C@H](NC(=O)[C@@H]1CCCN1C(=O)[C@@H](NC[C@@H](N)Cc1ccccc1)C(C)C)C(=O)N[C@@H](Cc1ccccc1)C(=O)N[C@H](C(=O)N[C@@H](Cc1ccc(O)cc1)C(=O)NCC(=O)N[C@@H](CC(=O)O)C(=O)N[C@@H](CC(C)C)C(=O)N[C@@H](CCC(N)=O)C(=O)N[C@@H](CCCNC(=N)N)C(=O)N[C@@H](CCSC)C(=O)N[C@@H](CCC(N)=O)C(=O)N[C@@H](CCC(=O)O)C(=O)N[C@@H](CCCCN)C(=O)N[C@@H](CCC(=O)O)C(=O)N[C@@H](CCCNC(=N)N)C(=O)N1CCC[C@H]1C(=O)N[C@@H](CCCCN)C(=O)N1CCC[C@H]1C(=O)N[C@@H](CCC(N)=O)C(=O)O)[C@@H](C)O [Compound 13] (H-[X1]PIFTYGDLQRMQEKERPKPQ-OH; N-terminus and C-terminus assumed)	–
24.6 ± 5.8 ng/mL	4.7 ng·h/mL	9.5 ± 0.9%	FVPIFTYGDLQRLQEKERPKPQ [Compound 3]	–
4.53 ± 2.86 ng/mL	1.05 ng·h/mL	2.8 ± 1.6%	FVPIFTYGELQRLQEKERNKGQ [Comparative compound 1, reference compound]	BA ([1]; listed as comparative compound 1): 2.8%

Molecule	Cmax [1, 3]	AUC [1, 3]	BA [1]	further results
CC[C@H](C)[C@H](NC(=O)[C@@H]1CCCN1C(=O)[C@@H](NC(=O)C[C@@H](N)c1ccccc1)C(C)C)C(=O)N[C@@H](Cc1ccccc1)C(=O)N[C@H](C(=O)N[C@@H](Cc1ccc(O)cc1)C(=O)NCC(=O)N[C@@H](CCC(=O)O)C(=O)N[C@@H](CC(C)C)C(=O)N[C@@H](CCC(N)=O)C(=O)N[C@@H](CCCNC(=N)N)C(=O)N[C@@H](CC(C)C)C(=O)N[C@@H](CCC(N)=O)C(=O)N[C@@H](CCC(=O)O)C(=O)N[C@@H](CCCCN)C(=O)N[C@@H](CCC(=O)O)C(=O)N[C@@H](CCCNC(=N)N)C(=O)N1CCC[C@H]1C(=O)N[C@@H](CCCCN)C(=O)N1CCC[C@H]1C(=O)N[C@@H](CCC(N)=O)C(=O)O)[C@@H](C)O [Compound 4] (β3hPhg-VPIFTYGELQRLQEKERPKPQ-OH; N-terminus and C-terminus assumed)	14.6 ± 8.23 ng/mL	4.69 ng·h/mL	11.0 ± 7.2%	–
CC[C@H](C)[C@H](NC(=O)CN(C)C(=O)[C@@H](NC(=O)C[C@@H](N)c1ccccc1)C(C)C)C(=O)N[C@@H](Cc1ccccc1)C(=O)N[C@H](C(=O)N[C@@H](Cc1ccc(O)cc1)C(=O)NCC(=O)N[C@@H](CCC(=O)O)C(=O)N[C@@H](CC(C)C)C(=O)N[C@@H](CCC(N)=O)C(=O)N[C@@H](CCCNC(=N)N)C(=O)N[C@@H](CC(C)C)C(=O)N[C@@H](CCC(N)=O)C(=O)N[C@@H](CCC(=O)O)C(=O)N[C@@H](CCCCN)C(=O)N[C@@H](CCC(=O)O)C(=O)N[C@@H](CCCNC(=N)N)C(=O)N1CCC[C@H]1C(=O)N[C@@H](CCCCN)C(=O)N1CCC[C@H]1C(=O)N[C@@H](CCC(N)=O)C(=O)O)[C@@H](C)O [Compound 5, Phg(C#CH2) Val Sar Ile Phe Thr Tyr Gly Glu Leu Gln Arg Leu Gln Glu Lys Glu Arg Pro Lys Pro Gln] (β3hPhg-V[Sar]IFTYGELQRLQEKERPKPQ-OH; N-terminus and C-terminus assumed)	14.8 ± 7.78 ng/mL	2.92 ng·h/mL	5.7 ± 2.9%	–
CC[C@H](C)[C@H](NC(=O)[C@@H]1CCCN1C(=O)[C@@H](NC[C@@H](N)Cc1ccccc1)C(C)C)C(=O)N[C@@H](Cc1ccccc1)C(=O)N[C@H](C(=O)N[C@@H](Cc1ccc(O)cc1)C(=O)NCC(=O)N[C@@H](CCC(=O)O)C(=O)N[C@@H](CC(C)C)C(=O)N[C@@H](CCC(N)=O)C(=O)N[C@@H](CCCNC(=N)N)C(=O)N[C@@H](CC(C)C)C(=O)N[C@@H](CCC(N)=O)C(=O)N[C@@H](CCC(=O)O)C(=O)N[C@@H](CCCCN)C(=O)N[C@@H](CCC(=O)O)C(=O)N[C@@H](CCCNC(=N)N)C(=O)N[C@@H](CC(N)=O)C(=O)N[C@@H](CCCCN)C(=O)N1CCC[C@H]1C(=O)N[C@@H](CCC(N)=O)C(=O)O)[C@@H](C)O [Compound 7] (H-[X1]PIFTYGELQRLQEKERNKPQ-OH; N-terminus and C-terminus assumed)	17.2 ± 7.18 ng/mL	3.24 ng·h/mL	6.4 ± 1.3%	–
FVPIFTYGELQRLQEKERPKPQ [Compound 9]	8.99 ± 5.99 ng/mL	1.93 ng·h/mL	5.7 ± 3.1%	–
